Source: patent US12590091B2, “1H-pyrrolo[3,2-C]pyridine and 1H-pyrrolo[2,3-C]pyridine derivatives as TLR9 inhibitors for the treatment of fibrosis” (BRISTOL-MYERS SQUIBB COMPANY, priority 2020, dated 2026)

Biological target: T1, human TLR7 (Homo sapiens, UniProt Q9NYK1)
T1 construct: host or cells: HEK-Blue cells
T1 sequence (Q9NYK1 27-1049): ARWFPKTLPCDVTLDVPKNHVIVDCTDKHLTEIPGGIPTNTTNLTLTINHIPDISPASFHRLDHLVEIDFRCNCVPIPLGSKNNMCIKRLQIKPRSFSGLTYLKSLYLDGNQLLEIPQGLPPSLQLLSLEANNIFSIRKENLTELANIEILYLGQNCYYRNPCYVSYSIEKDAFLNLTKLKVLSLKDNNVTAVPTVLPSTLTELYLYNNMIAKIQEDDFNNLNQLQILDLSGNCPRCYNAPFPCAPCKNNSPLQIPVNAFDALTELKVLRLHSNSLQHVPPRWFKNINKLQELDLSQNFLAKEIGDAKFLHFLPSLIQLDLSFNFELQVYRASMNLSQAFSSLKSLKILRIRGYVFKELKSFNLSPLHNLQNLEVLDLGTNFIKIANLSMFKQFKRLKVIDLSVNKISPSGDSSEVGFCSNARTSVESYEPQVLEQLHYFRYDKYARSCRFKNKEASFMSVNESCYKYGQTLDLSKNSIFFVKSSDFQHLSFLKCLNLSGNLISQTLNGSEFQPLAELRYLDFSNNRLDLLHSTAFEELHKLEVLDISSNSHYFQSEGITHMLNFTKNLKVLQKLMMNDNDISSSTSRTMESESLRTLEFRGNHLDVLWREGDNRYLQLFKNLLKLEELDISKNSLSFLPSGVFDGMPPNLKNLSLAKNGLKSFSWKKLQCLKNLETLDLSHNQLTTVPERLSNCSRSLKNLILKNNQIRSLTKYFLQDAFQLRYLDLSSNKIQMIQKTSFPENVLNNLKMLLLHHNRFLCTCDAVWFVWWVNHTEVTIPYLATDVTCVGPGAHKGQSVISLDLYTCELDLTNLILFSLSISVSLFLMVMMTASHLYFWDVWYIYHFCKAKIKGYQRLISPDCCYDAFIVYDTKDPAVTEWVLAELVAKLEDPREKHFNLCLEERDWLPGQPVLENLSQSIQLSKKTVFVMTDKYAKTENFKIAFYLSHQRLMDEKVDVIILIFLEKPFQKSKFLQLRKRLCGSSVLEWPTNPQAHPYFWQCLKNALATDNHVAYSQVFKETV
Experiment: TLR7 inhibition reporter assay (HEK-Blue cells, SEAP reporter)
Assay type: cell-based
Conditions: HEK-Blue cells overexpressing human TLR7, stimulated with gardiquimod 7.5 μM, 22 hour incubation
Summary of the method: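 Agonists used: gardiquimod 7.5 μM (TLR7), R848 15.9 μM (TLR8), ODN2006 5 nM (TLR9), added after 30 min room-temperature compound pre-treatment (0.05 nM–50 μM) of receptor-overexpressing HEK-Blue cells. SEAP reporter (NF-κB/AP-1 driven) read after 22 h at 37 °C; inhibition scaled between agonist+DMSO and reference-inhibitor wells.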

IC50 [µM]	SMILES
3.6	Cc1nc(-c2cc(F)c(C3(O)CCN(CC(C)C)CC3)cc2F)cc2c1cc(-c1ccc(S(C)(=O)=O)cc1)n2C [Example 94, 4-(4-(1,4-dimethyl-2-(4-(methylsulfonyl)phenyl)-1H-pyrrolo[3,2-c]pyridin-6-yl)-2,5-difluorophenyl)-1-isobutylpiperidin-4-ol]
3.2	COCCN1CCC(O)(c2cc(F)c(-c3cc4c(cc(-c5ccc(S(C)(=O)=O)cc5)n4C)c(C)n3)cc2F)CC1 [Example 95, 4-(4-(1,4-dimethyl-2-(4-(methylsulfonyl)phenyl)-1H-pyrrolo[3,2-c]pyridin-6-yl)-2,5-difluorophenyl)-1-(2-methoxyethyl)piperidin-4-ol]
2.9	Cc1nc(-c2cc(F)c(C3(O)CCN(C4CC4)CC3)cc2F)cc2c1cc(-c1ccc(S(C)(=O)=O)cc1)n2C [Example 96, 1-cyclopropyl-4-(4-(1,4-dimethyl-2-(4-(methylsulfonyl)phenyl)-1H-pyrrolo[3,2-c]pyridin-6-yl)-2,5-difluorophenyl)piperidin-4-ol]
3.8	Cc1nc(-c2cc(F)c(N3CCN4CCCC4C3)cc2F)cc2c1cc(-c1ccc(S(C)(=O)=O)cc1)n2C (stereo not drawn) [Example 97, 6-(2,5-difluoro-4-(hexahydropyrrolo[1,2-a]pyrazin-2(1H)-yl)phenyl)-1,4-dimethyl-2-(4-(methylsulfonyl)phenyl)-1H-pyrrolo[3,2-c]pyridine]
0.7	Cc1nc(-c2cc(F)c(N3CCN4CCCC4C3)c(F)c2)cc2c1cc(-c1ccc(S(C)(=O)=O)cc1)n2C (stereo not drawn) [Example 98, 6-(3,5-difluoro-4-(hexahydropyrrolo[1,2-a]pyrazin-2(1H)-yl)phenyl)-1,4-dimethyl-2-(4-(methylsulfonyl)phenyl)-1H-pyrrolo[3,2-c]pyridine]

The next lines start with the compound.

SMILES	IC50 [µM]
CCOC(=O)N1CCC(N2CCC(c3cc4c(cn3)cc(-c3ccc(OC)c(OC)c3)n4C)CC2)CC1 [Example 7, Ethyl 4-(2-(3,4-dimethoxyphenyl)-1-methyl-1H-pyrrolo[3,2-c]pyridin-6-yl)-[1,4′-bipiperidine]-1′-carboxylate]	> 50
COc1ccc(-c2cc3cnc(C4CCN(Cc5ccc(C)nc5)CC4)cc3n2C)cc1OC [Example 8, 2-(3,4-Dimethoxyphenyl)-1-methyl-6-(1-((6-methylpyridin-3-yl)methyl)piperidin-4-yl)-1H-pyrrolo[3,2-c]pyridine]	6.8
Cc1nc(-c2cc(F)c(N3CCN(C4CCOCC4)CC3)c(F)c2)cc2c1cc(-c1ccc(S(C)(=O)=O)cc1)n2C [Example 89, 6-(3,5-difluoro-4-(4-(tetrahydro-2H-pyran-4-yl)piperazin-1-yl)phenyl)-1,4-dimethyl-2-(4-(methylsulfonyl)phenyl)-1H-pyrrolo[3,2-c]pyridine]	> 50
Cc1nc(-c2ccc(C3(O)CCN(CC(C)C)CC3)c(F)c2)cc2c1cc(-c1ccc(S(C)(=O)=O)cc1)n2C [Example 90, 4-(4-(1,4-dimethyl-2-(4-(methylsulfonyl)phenyl)-1H-pyrrolo[3,2-c]pyridin-6-yl)-2-fluorophenyl)-1-isobutylpiperidin-4-ol]	7.8
Cc1nc(-c2ccc(C3(O)CC4CCC(C3)N4CC(C)C)c(F)c2)cc2c1cc(-c1ccc(S(C)(=O)=O)cc1)n2C [Example 91, (1R,3r,5S)-3-(4-(1,4-dimethyl-2-(4-(methylsulfonyl)phenyl)-1H-pyrrolo[3,2-c]pyridin-6-yl)-2-fluorophenyl)-8-isobutyl-8-azabicyclo[3.2.1]octan-3-ol]	30.8
COCCN1CCC(O)(c2ccc(-c3cc4c(cc(-c5ccc(S(C)(=O)=O)cc5)n4C)c(C)n3)cc2F)CC1 [Example 92, 4-(4-(1,4-dimethyl-2-(4-(methylsulfonyl)phenyl)-1H-pyrrolo[3,2-c]pyridin-6-yl)-2-fluorophenyl)-1-(2-methoxyethyl)piperidin-4-ol]	7
Cc1nc(-c2ccc(C3(O)CCN(C4CC4)CC3)c(F)c2)cc2c1cc(-c1ccc(S(C)(=O)=O)cc1)n2C [Example 93, 1-cyclopropyl-4-(4-(1,4-dimethyl-2-(4-(methylsulfonyl)phenyl)-1H-pyrrolo[3,2-c]pyridin-6-yl)-2-fluorophenyl)piperidin-4-ol]	9.9
